Experimental data published in patent publication US20170065561A1, “METHODS OF CANCER THERAPY” (CAMBRIDGE ENTERPRISE LIMITED, priority 2014, published 2017).
Entries after “also recorded” stand apart in the source; their conditions may differ.

Columns and labels:
[1] = biological target: T1, 1-O-acylceramide synthase (Homo sapiens, UniProt Q8NCC3); settings: cited from earlier work
T1 sequence (Q8NCC3 34-412): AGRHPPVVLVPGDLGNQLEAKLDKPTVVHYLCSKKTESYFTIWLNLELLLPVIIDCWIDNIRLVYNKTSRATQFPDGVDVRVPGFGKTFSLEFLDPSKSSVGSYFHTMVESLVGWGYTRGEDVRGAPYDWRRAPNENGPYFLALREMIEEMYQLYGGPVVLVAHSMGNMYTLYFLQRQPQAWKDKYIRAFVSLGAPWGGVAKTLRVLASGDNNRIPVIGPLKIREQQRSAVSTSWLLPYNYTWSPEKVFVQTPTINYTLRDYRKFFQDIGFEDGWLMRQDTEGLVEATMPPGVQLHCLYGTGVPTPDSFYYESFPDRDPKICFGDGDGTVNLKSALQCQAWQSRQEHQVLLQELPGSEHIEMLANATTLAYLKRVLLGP

plasma glucosylceramide = test: Delayed treatment experiments: plasma glucosylceramide; format: in vivo, mouse; settings: delayed treatment: mean age 7.3 months, 300 mg/kg daily for 5.4 months
Procedure: (§1) To investigate the potential effects of delayed treatment, eight Gaucher mice were exposed to Genz-112638 after 6 months of age. The animals received the drug for 6 months at a dose 300 mg/kg daily and were killed at 12 months of age (FIG. 1). A group of eight matched Gaucher disease control mice were given the base standard diet; these animals were monitored and otherwise treated identically with those animals with delayed exposure to the study drug.
(§2) Concentrations of β-D-glucosylceramide in plasma in the short-term tolerability study were conducted as previously published. β-D-glucosylceramide, β-D-glucosylsphingosine and ceramide concentrations in tissues and plasma samples of the principal intervention and delayed-treatment experiments were quantified as previously reported.

[2] = tested on: plasma β-D-glucosylsphingosine; test: Main treatment experiments in GD mice: plasma glucosylsphingosine; format: in vivo, mouse; settings: for plasma glucosylsphingosine: GD mice with intermittent treatment; for reduction of plasma glucosylsphingosine: 300 mg/kg/day
Procedure: The inducible mouse model of type 1 Gaucher disease [Gba^tm1Karl/tm1KarlTg (Mx1-cre) 1Cgn/0 (MGI:3687965; MGI:2176073)[41]. The mating, induction with polyinosinic-polycytidylic (poly I:C) acid sodium salt solution and genotyping were conducted as previously described. Animals of genotype Gba^tm1Karl/tm1KarlTg (Mx1-cre) 1Cgn/0 are referred GD mice; induced mice with the Gba^tm1Karl/tm1Karl and Gba^tm1Karl/+ genotypes and background strain wild type animals served as age-matched controls. All mice here reported had been bred on a C57BL/6 and 129/sv background.
GENZ 112638 was introduced at a mean age of 1.5 months, with access to the diet and water ad libitum. All experimental animals were housed in individually ventilated cages in groups of up to three mice within the same environmental conditions. The health of the animals was checked daily; body weights and food consumption were monitored at intervals of three days. The humane endpoints were approved and established: (i) reduction of 20% or more of the greatest recorded body weight or (ii) the development of adverse manifestations (e.g. development of frank tumours or cachexia).
as §2

[3] = tested on: glycosidases and other enzymes involved in sphingolipid metabolism; settings: in vitro; cited from earlier work
GD mice [4] = test: Main treatment experiments: histology and immunohistochemistry of tissues; settings: for plasma-cell (CD138+) infiltration in the red pulp of the spleen: treated versus age-matched untreated GD mice
Procedure: A total of 22 induced Gaucher disease mice received GENZ 112638 at 300 mg/kg daily: four mice received the treatment over 3 months, four mice received the drug for 6 months, six mice received the diet for 7-9 months. […] A group of 8 mice received the drug for 10 months and were killed at 14 months of age. To serve as a control group, 45 age- and sex-matched induced Gaucher mice were given a standard diet.
Visceral organs (spleen, liver, lungs and kidneys) as well as long bones, lymph nodes, and, where relevant, tumours, were collected by dissection and either frozen or fixed in 4% w/v paraformaldehyde or 10% buffered formalin and processed in paraffin-embedded blocks for further analysis. Sample of long bones were fixed in 4% w/v paraformaldehyde and decalcified in EDTA for two weeks. Spleen and liver weights were recorded fresh at post mortem. Samples of venous blood were collected from the tail vein at 3 monthly intervals during the experimental protocol. Complete blood counts (CBC) were determined using an automated haematology analyser (SYSMEX XT 2000i). EDTA plasma or serum samples collected at post mortem were stored at −80° C. until thawed for analysis.
Paraffin-embedded sections of 3.5 μm were stained routinely with haematoxylin and eosin. Immunohistochemical staining was carried out using rat anti-mouse CD45R/B220 (R&D systems), anti-mouse CD3 (Abcam), CD138 (BD, Pharmingen), rat anti-mouse Mac-3 M3/84 clone (BD, Pharmingen) and rabbit anti-mouse Ki-67 (Abcam) primary antibodies. Staining was realized by the avidin-biotin peroxidase technique (Vectastatin ABC elite kit), and developed using diaminobenzidine with cresyl violet or haematoxylin counterstaining.
Lymphoproliferation in serial sections of spleen, liver, lungs and kidneys was estimated by a scoring system modified as described by Elmore [42]. Sections were reviewed blindly for lymphoma and lymphoproliferative reactions by a board-certified veterinary pathologist.

GD mice [5] = test: Delayed treatment experiments: lymphoid hyperplasia and lymphoma (histology); format: in vivo, mouse; settings: delayed treatment: 300 mg/Kg daily, mean age 7.3 months, 5.4 months, total 9 mice
Procedure: as §1

In the case of “bis{N-[(1R,2R)-2-(2,3-dihydro-1,4-benzodioxin-6-yl)-2-hydroxy-1-(pyrrolidin-1-ylmethyl)ethyl]octanamide} (2R,3R)-2,3-dihydroxybutanedioate [eliglustat tartrate]”, the “inhibition of 1-O-acylceramide synthase” value [1] is listed as “does not inhibit 1-O-acylceramide synthase”, the “plasma concentration of glucosylceramide” value (plasma glucosylceramide) is listed as “decreased” and the plasma glucosylsphingosine ([2]; listed as GENZ 112638) is listed as “raised above the reference range”. For the same substance, the plasma glucosylsphingosine ([2]; listed as Genz-112638) was “not significantly different”, the “plasma β-D-glucosylsphingosine concentration” value ([2]; GD mice, 300 mg/kg daily, early continuous treatment, listed as GENZ 112638, 300 mg/kg) was “decreased; also recorded: notable decrease” and the “reduction of plasma glucosylsphingosine” value ([2]; GD mice, after 6 months of treatment, p<0.01) was ~5 fold. For the same substance, the “reduction of plasma glucosylsphingosine” value ([2]; GD mice, after 9 months of treatment, p<0.05) was ~2 fold, the “inhibitory properties towards glycosidases and other enzymes involved in sphingolipid metabolism” value [3] was “minimal inhibitory properties” and the “Ki-67 staining (proliferation marker), spleen” value (GD mice [4]; GD mice treated for 10 months, listed as Genz-112638) was “less evident; also recorded: decreased population of lymphoid cells”. The “lipid-engorged macrophages in tissue sections” value (GD mice [4]; GD mice, liver and spleen) was “fewer lipid-engorged macrophages”, the “pathological macrophages staining for the Mac 3 antigen” value (GD mice [4]; tissues of GD mice, listed as GENZ 112638) was “markedly decreased or absent; also recorded: prevented the florid appearance of pathological macrophages” and the “cellularity of the spleens” value (GD mice [4]; treated Gaucher mice) was “slight decrease”. The “plasma-cell (CD138+) infiltration in the red pulp of the spleen” value (GD mice [4]; listed as GENZ 112638) was “less evident”, the “plasma-cell (CD138+) infiltration in the red pulp of the spleen” value (GD mice [4]; listed as Genz-112638) was “decreased number of CD138^+ lymphocytes” and the “inflammatory changes in the liver, lungs and kidneys” value (GD mice [4]; treated versus untreated GD mice) was “reduced or absent”. The “splenic architecture (H&E; B220/CD3 staining)” value (GD mice [4]; treated versus untreated GD mice, listed as GENZ 112638) was “preservation of the splenic architecture”, the “splenic architecture (H&E; B220/CD3 staining)” value (GD mice [4]; treated versus untreated GD mice, listed as Genz-112638) was “preserved white pulp architecture” and the “spleen and liver weights” value (GD mice [4]; treated versus untreated Gaucher mice) was “did not differ”. For the same substance, the “Lymphoid hyperplasia (number of mice)” value (GD mice [5]) was 4, the “Lymphoma/myeloma (number of mice)” value (GD mice [5]) was 1 and the “Lymphoid hyperplasia (number of mice)” value (GD mice [5]; listed as GENZ 112638) was “five”. The “Lymphoma/myeloma (number of mice)” value (GD mice [5]; listed as GENZ 112638) was “one and did not completely prevent”.
